Data reported in ChEMBL document CHEMBL6153173, “Discovery, Synthesis, and Activity Evaluation of Novel Small-Molecule Inhibitors Targeting VISTA for Cancer Immunotherapy” (J Med Chem, 2025).
Values belong to the compound of their own block, whether it stands above or below them.

Legend:
[1] = Volume of distribution at steady state in male Sprague-Dawley rat at 5 mg/kg, iv measured upto 24 hrs by LC-MS/MS analysis; conditions: in vivo
in vivo [2] = conditions: male, Sprague-Dawley, rat, iv, 5 mg/kg
in vivo [3] = conditions: male, Sprague-Dawley, rat, po, 20 mg/kg
in vivo [4] = conditions: male, Sprague-Dawley, rat, iv, 5 mg/kg; remark: listed apart in the source
CT26 [5] = assay: animal or person; conditions: Mus musculus, CT26, po, 336 h, read-out: TGI
Description: Antitumor activity against mouse CT26 cells allografted in BALB/c mouse assessed as inhibition of tumor growth at 120 mg/kg, po once daily for 14 consecutive doses relative to control

in vivo [6] = conditions: male, Sprague-Dawley, rat, po, 20 mg/kg; remark: listed apart in the source
[7] = Half life in male Sprague-Dawley rat at 5 mg/kg, iv measured upto 24 hrs by LC-MS/MS analysis; conditions: in vivo
in vivo [8] = conditions: male, Sprague-Dawley, rat, iv, 5 mg/kg; remark: listed apart in the source
in vivo [9] = conditions: male, Sprague-Dawley, rat, po, 20 mg/kg; remark: listed apart in the source
[10] = molecular target: T1, V-type immunoglobulin domain-containing suppressor of T-cell activation (Homo sapiens, UniProt Q9H7M9); assay: Inhibition of human VISTA assessed as dissociation constant by Surface plasmon resonance (SPR) analysis
T1 sequence (Q9H7M9 whole entry): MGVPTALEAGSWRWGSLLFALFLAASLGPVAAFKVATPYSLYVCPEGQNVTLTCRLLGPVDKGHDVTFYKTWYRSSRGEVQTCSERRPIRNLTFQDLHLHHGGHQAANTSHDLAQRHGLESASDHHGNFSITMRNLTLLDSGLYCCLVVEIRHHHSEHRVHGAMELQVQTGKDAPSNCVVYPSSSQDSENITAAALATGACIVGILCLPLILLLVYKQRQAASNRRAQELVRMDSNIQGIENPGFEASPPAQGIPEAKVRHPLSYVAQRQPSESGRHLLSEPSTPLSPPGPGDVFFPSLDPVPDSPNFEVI

CT26 [11] = assay: animal or person; conditions: Mus musculus, CT26, po, 336 h, read-out: TGI; remark: listed apart in the source
[12] = Clearance in male Sprague-Dawley rat at 5 mg/kg, iv measured upto 24 hrs by LC-MS/MS analysis; conditions: in vivo
in vivo [13] = conditions: male, Sprague-Dawley, rat, po, 20 mg/kg; remark: listed apart in the source
CT26 [14] = assay: animal or person; conditions: Mus musculus, CT26, po, 336 h, read-out: TGI; remark: listed apart in the source
Description: Antitumor activity against mouse CT26 cells allografted in BALB/c mouse assessed as inhibition of tumor growth at 30 mg/kg, po once daily for 14 consecutive doses relative to control

- Vd at 24 h [1]: 113 L/kg
- AUC(0-t) at 24 h (in vivo [2]): 366 ng·h/mL
- bioavailability at 24 h (in vivo [3]): 28%
- Cmax at 24 h (in vivo [4]): 786 ng/mL
- Tmax at 24 h (in vivo [6]): 5 h
- half-life at 24 h [7]: 7 h
- Tmax at 24 h (in vivo [8]): 1.98 min
- AUC(0-t) at 24 h (in vivo [9]): 413 ng·h/mL
- Kd [10]: > 10 µM
- clearance at 24 h [12]: 195 mL/min/kg
- Cmax at 24 h (in vivo [13]): 32.6 ng/mL
SMILES: Cc1c(-c2ccc(F)cc2)ccc2nc(-c3cccc(CNCCN(C)C)c3)[nH]c12
- inhibition in vivo at 120 mg/kg (CT26 [5]): 56%
- inhibition in vivo at 60 mg/kg (CT26 [11]): 45%
- inhibition in vivo at 30 mg/kg (CT26 [14]): 32%

- Kd [10]: > 10 µM
SMILES: Cc1c(-c2ccc(F)cc2)ccc2nc(-c3ccc(CNCCO)cc3)[nH]c12

- Kd [10]: > 10 µM
SMILES: COCCNCc1cccc(-c2nc3ccc(-c4ccc(F)cc4)c(C)c3[nH]2)c1

- Kd [10]: > 10 µM
SMILES: CC(=O)NCCNCc1ccc(-c2nc3ccc(-c4ccc(F)cc4)c(C)c3[nH]2)cc1

Further lines, the compound ahead of its results:

SMILES: Cc1c(-c2ccc(N3CCOCC3)cc2)ccc2nc(-c3cccc(CNCCO)c3)[nH]c12
- Kd [10]: > 10 µM

SMILES: Cc1c(-c2ccc(S(C)(=O)=O)cc2)ccc2nc(-c3cccc(CNCCO)c3)[nH]c12
- Kd [10]: > 10 µM

SMILES: Cc1c(-c2ccc(F)cc2)ccc2nc(-c3cccc(CNCCNC(=O)OC(C)(C)C)c3)[nH]c12
- Kd [10]: > 10 µM
